The values that follow come from paper PMC6017928, “Informing Efforts to Develop Nitroreductase for Amine Production” (Molecules : A Journal of Synthetic Chemistry and Natural …, 2018).

Assay [1] concerns the target T1, MsPnbA (Mycolicibacterium smegmatis, UniProt A0R6D0).
T1 construct: gene nfnB; C-terminal poly-His tag; E. coli BL21(DE3), pET-28a; Ni-NTA, FMN-reconstituted
The experiment in a line: NADH oxidation, initial rates in microtiter plate; Michaelis-Menten fit. The conditions noted are these: NADH co-substrate, 25 °C; only normalised kcat/KM used in text. The assay is classed as biochemical.

Assay [2] addresses T2, StNfsB (Salmonella enterica, UniProt P15888).
T2 construct: gene nfsB; full length, 217 residues; untagged purification (ammonium sulfate, DEAE, Sephacryl); E. coli BL21(DE3), pET-28a; FMN-reconstituted; homodimer
T2 sequence (P15888 1-217): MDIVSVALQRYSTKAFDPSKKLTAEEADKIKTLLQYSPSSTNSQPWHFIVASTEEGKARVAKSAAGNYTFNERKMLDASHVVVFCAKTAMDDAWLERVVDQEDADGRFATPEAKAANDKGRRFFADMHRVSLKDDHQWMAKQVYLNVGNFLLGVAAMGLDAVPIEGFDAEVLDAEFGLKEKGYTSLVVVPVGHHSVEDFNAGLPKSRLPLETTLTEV
The experiment in a line: NADH oxidation at […] nm; Michaelis-Menten fit. The assay is classed as biochemical. The settings on record: 0.5 mM NADH, 25 °C.

T1 sequence (A0R6D0 whole entry): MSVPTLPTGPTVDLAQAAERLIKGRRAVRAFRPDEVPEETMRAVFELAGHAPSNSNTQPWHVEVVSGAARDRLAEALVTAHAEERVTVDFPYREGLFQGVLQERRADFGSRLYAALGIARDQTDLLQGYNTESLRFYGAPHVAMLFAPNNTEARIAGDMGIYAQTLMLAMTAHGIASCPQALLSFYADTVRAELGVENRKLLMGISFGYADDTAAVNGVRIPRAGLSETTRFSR

For `O=[N+]([O-])c1ccccc1` [compound 1, nitrobenzene], in assay [1], the “NADH oxidation, initial rates in microtiter plate; Michaelis-Menten fit” value is “dividing by the rate measured for the unsubstituted parent compound: nitrobenzene”. Further, the “NADH oxidation at 370 nm; Michaelis-Menten fit” value in assay [2] is reported as “dividing by the rate measured for the unsubstituted parent compound: nitrobenzene”.
